# Earlier results in US11219621B2, “Methods for treating immunodeficiency disease” (X4 Pharmaceuticals, Inc., priority 2015, dated 2022).
# pIC50: −log10 of the molar value.
# Biological target: T1, CCR4 (Homo sapiens, UniProt P51679)
# T1 construct: expressed in transfected cells
# T1 sequence (P51679 1-360): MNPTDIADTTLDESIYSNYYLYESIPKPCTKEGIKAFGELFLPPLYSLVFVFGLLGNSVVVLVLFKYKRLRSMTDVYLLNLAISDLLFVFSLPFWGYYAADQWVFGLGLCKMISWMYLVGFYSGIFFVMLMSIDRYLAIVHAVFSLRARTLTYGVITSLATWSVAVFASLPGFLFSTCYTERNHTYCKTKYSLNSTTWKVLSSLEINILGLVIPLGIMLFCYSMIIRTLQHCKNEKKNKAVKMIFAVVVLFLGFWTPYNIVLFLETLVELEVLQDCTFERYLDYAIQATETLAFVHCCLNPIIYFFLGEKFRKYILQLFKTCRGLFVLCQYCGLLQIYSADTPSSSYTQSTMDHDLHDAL
# Conditions: cited from earlier work
smiles,measurement,setting,value
NCCCCN(Cc1nc2ccccc2[nH]1)[C@H]1CCCc2cccnc21 [X4P-001],pIC50,"CCR4, HEK293F-CCR4-Gαq15, TARC/CCL17, read-out: IC50 AMD11070",< 4.30
same,Inhibitory effect on TARC mediated calcium flux (CCR4),,little or no inhibitory effect
